Target: Glutamate receptor ionotropic, kainate 2 (Homo sapiens, UniProt Q13002)
Sequence (Q13002 whole entry): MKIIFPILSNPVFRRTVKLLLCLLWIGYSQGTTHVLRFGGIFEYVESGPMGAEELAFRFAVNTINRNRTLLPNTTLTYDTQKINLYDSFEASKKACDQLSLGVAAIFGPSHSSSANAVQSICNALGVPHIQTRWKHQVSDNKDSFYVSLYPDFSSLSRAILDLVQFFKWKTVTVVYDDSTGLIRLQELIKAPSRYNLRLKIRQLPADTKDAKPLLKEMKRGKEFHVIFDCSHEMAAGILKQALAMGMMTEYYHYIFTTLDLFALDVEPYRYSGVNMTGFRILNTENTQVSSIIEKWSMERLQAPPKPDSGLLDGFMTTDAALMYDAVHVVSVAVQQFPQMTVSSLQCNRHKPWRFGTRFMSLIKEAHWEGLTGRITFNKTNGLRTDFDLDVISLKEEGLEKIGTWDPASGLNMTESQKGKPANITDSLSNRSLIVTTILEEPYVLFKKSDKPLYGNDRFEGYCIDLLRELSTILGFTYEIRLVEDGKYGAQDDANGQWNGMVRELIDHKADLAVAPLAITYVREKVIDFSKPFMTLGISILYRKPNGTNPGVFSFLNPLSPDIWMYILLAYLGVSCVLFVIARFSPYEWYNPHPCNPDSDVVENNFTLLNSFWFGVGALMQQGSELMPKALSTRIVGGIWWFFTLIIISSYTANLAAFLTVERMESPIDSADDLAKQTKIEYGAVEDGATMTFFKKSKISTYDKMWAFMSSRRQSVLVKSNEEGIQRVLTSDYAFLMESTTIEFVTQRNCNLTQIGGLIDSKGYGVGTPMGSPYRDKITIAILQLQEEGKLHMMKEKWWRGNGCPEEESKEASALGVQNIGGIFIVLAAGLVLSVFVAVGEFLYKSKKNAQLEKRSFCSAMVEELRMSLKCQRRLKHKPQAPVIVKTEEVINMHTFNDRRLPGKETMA

## O=C(O)c1ccc(C[C@H]2CC[C@H]3CN[C@H](C(=O)O)C[C@H]3C2)cc1 [LY 382884]
  Ki: > 10 µM

Source: BindingDB's records for doi:10.1038/46290 (University of Bristol, 1999)
